# Measurements as given in patent US6407058B1, “Modifying the permeability of physiological barriers” (Eisai Co., Limited, priority 1996, dated 2002).
# Assays:
# p100/p120 [1] = test: p100/p120 electrophoretic mobility (band shift) by immunoblotting, MDCK I cells; type: cell-based; settings: MDCK I; for block of PDB-induced p100/p120 band shift: pretreatment 5 minutes (bisindolylmaleimide I or V 2.5 μM, Ro 31-8425 5 μM), then 200 nM PDB 30 minutes; for reversal of PDB-induced p100/p120 band shift: 200 nM PDB 30 minutes, then 2.5 μM inhibitor added in presence of PDB
# Experimental: The migration of the cellular proteins p100 and p120 during electrophoresis is increased following PDB-treatment of MDCK I cells. PDB (phorbol-12,13-dibutyrate) is a pharmacological activator of protein kinase C. MDCK I cells are a kidney derived epithelial cell line, with particularly well developed junctional complexes. Cells treated for 30 minutes with either 200 nM PDB (+) or vehicle (−) were then lysed into Laemmli sample buffer, and separated by electrophoresis using 6% acrylamide gels. Proteins were transferred to nitrocellulose and probed with antibodies to p100/p120, and then reprobed with E-cadherin and paxillin antibodies.
# (§1) MDCK strain I and II cells were provided by Barry Gumbiner (memorial Sloan-Kettering Cancer Center, NY). LLC-PK1 and Caco-2 cells were obtained from the European Collection of Animal Cell Cultures. All cells were maintained at 37° C. under 5% CO2 in humidified air. MDCK strain I and II cells were maintained in MEM containing 10% FCS, 100 U/ml penicillin, 100 μg/ml streptomycin and 2 mM L-glutamine. Caco-2 cells were maintained in MEM containing 15% FCS, 1% non-essential amino acids and 1 μg/ml bovine insulin (Sigma I-6634). LLC-PK1 cells were grown in M199 (Gibco), 10% FCS, 100 U/ml penicillin, 100 μg/ml streptomycin and 2 mM L-glutamine. For whole cell lysate analysis, 10^5 cells were plated on 6.5 mm diameter, 0.4 μm, polycarbonate Transwell filters from Costar, in 0.25 ml of medium. The basolateral chamber contained 0.75 ml of medium. For immunoprecipitation, 5×10^5 cells were plated onto 24 mm Transwell filters, in 2 ml of medium, with 3 ml of medium in the lower chamber. Cells were used 4-7 days after plating. Tissue culture materials were from Gibco. Porcine brain endothelial cells were isolated and grown by modifications of a previously published procedure (Rubin et al., 1991). Brain capillary fragments were plated on dishes coated with rat tail collagen and human fibronectin. The cultures were fed every other day with growth medium composed of 50% astrocyte-conditioned medium and 50% Dulbecco's Modified Eagle Medium containing 10% plasma-derived serum, 125 μg/ml heparin, antibiotics and glutamine. They were incubated in a humidified atmosphere of 10% CO2 at 37° C. When the endothelial cells were approximately 50% confluent (after 4-6 days in culture), they were trypsinized and plated onto collagen-coated polycarbonate Transwell filters (6.5 mm diameter, 0.4 μm pore size, tissue culture treated, Costar Corp, Cambridge, Mass., U.S.A.) in the same medium (250 μl apically, 750 μl basolaterally). After 2-3 days on filters, the medium was switched to a 1:1 mixture of astrocyte-conditioned medium and a Dulbecco's Modified Eagle Medium-based, chemically defined medium (‘N2’, Rubin et al., 1991; Bottenstein and Sato, 1979). The final concentration of plasma-derived serum was 5%. Human umbilical vein endothelial cells were from Clonetics.
# (§2) Whole cell lysates were prepared by rapidly replacing the culture medium in 6.5 mm with hot Laemmli sample buffer, followed by heating at 100° C. for 5 minutes. Immunoprecipitations were carried out at 4° C. Confluent monolayers of cells were washed rapidly with ice cold PBS (containing 0.9 mM CaCl2 and 0.5 mM MgCl2) before addition of 0.5 ml of the appropriate buffer. The filters were then gently scraped, and the lysate was removed and centrifuged at 14000× g. The supernatant was precleared with 10% (w/v) protein A-Sepharose in lysis buffer for 30-60 minutes. Appropriate primary antibodies were added to the lysate, and after 2-3 hours the immunecomplex was isolated, using rabbit anti-mouse secondary antibodies (Jackson Immunoresearch Labs Inc., West Grove, Pa.) and protein A-Sepharose. The beads were washed fives times with lysis buffer, and the bound protein was solubilized in SDS-sample buffer, followed by heating at 100° C. for 5 minutes.
# Cell extracts or immunoprecipitates in SDS sample buffer were resolved by SDS-PAGE. […]
# p100/p120 [2] = test: p100/p120 electrophoretic mobility, human umbilical vein endothelial cells (HUVECs); type: cell-based; settings: HUVEC
# p100/p120 [3] = test: p100/p120 electrophoretic mobility (band shift) by immunoblotting, MDCK I cells; type: cell-based
# [4] = test system: brain endothelial cells tight junction; test: tight junction permeability in pig brain endothelial cells; type: cell-based; settings: results not shown
# [5] = test system: pig brain endothelial cell tight junctions; test: transcellular electrical resistance (TER) of pig brain endothelial cell cultures; type: cell-based
# Experimental: After 2 minutes the Transwells were returned to control medium and transcellular electrical resistance measurements were taken every minute for the following 18 minutes.
# as §1
# Transcellular electrical resistance (TER) measurements were taken with a pair of fixed, current-passing, voltage measuring electrodes (World Precision Instruments, Stevenage, Hertfordshire, U.K.). TER values are expressed in Ωcm^2 and were corrected for the resistance of cell-free filters.
# p100/p120 [6] = test: p100/p120 electrophoretic mobility, primary pig brain endothelial cells (PBECs); type: cell-based; settings: for mobility of p120 and p100: LPA 10 μM
# Experimental: (§3) Cells were treated with or without 200 nM PDB for 30 minutes, lysed into Laemmli sample buffer, separated by electrophoresis and analysed by immunoblotting with antibodies recognising p100 and p120.
# as §1
# as §2, with “A-Sepharose.” for “A-Sepharose. The beads were washed fives times with lysis buffer, and the bound protein was solubilized in SDS-sample buffer, followed by heating at 100° C. for 5 minutes.”
# p100/p120 [7] = test: p100/p120 electrophoretic mobility, human umbilical vein endothelial cells (HUVECs); type: cell-based; settings: HUVEC; for mobility of p100 and p120, blocker alone: 10 μM blocker alone
# Experimental: as §3
# Human umbilical vein endothelial cells were incubated with histamine (His), pyrilamine (Pyr) or cimetidine (Cim) alone or in combination. As indicated, cells were preincubated in the absence or presence of cimetidine (10 μM) or pyrilamine (10 μM) for 10 minutes and then treated with or without histamine (10 μM) for a further 10 minutes. The cells were extracted and protein analysed by gel electrophoresis and immunoblotting. […] In the following examples, increase mobility of p100/p120 means decreased phosphorylation.
# as §2
# Cell extracts or immunoprecipitates in SDS sample buffer were resolved by SDS-PAGE. The slab gels were then equilibrated in buffer comprising; 48 mM Tris, 39 mM glycine, 20% methanol and 0.03% SDS. Proteins were transferred to nitrocellulose filters (Hybond ECL; Amersham), which were Ponceau S stained and then blocked for 2 hours at 37° C. with 1% BSA in PBS containing 0.05% Tween-20. Filters were then probed with p120 antibody, at a dilution of 1:2500. After washing, filters were incubated with horseradish peroxidase conjugated anti-mouse antibody (Amersham), at a dilution of 1:5000. The filters were then extensively washed in PBS/0.5% Tween-20, and immunoreactive bands were detected by enhanced chemiluminescence (Amersham) following the manufacturers instructions.
# [8] = test system: brain endothelial cells tight junction; settings: pig brain endothelial cells (Schulze et al.); cited from earlier work
# [9] = 15 minutes, histamine 10 μM, LPA 10 μM, ATP 100 μM
molecule,measurement,setting,value
CCCC(=O)O[C@@H]1[C@@H](C)[C@@]2(O)[C@@H](C=C(CO)C[C@@]3(O)C(=O)C(C)=C[C@@H]23)[C@@H]2C(C)(C)[C@]12OC(=O)CCC [4α-PDB],effect on p100/p120 mobility,"p100/p120 [1]; 200 nM 4α-PDB, 30 minutes",no effect
Nc1ncnc2c1ncn2[C@@H]1O[C@H](COP(=O)(O)OP(=O)(O)OP(=O)(O)O)[C@@H](O)[C@H]1O [ATP],mobility of p100 and p120,p100/p120 [2]; [9],increase in the mobility
"CCCCCCCC(=O)OCC(CO)OC(=O)CCCCCCC (stereo not shown) [DiC8, 1,2-dioctanoylglycerol]",effect on p100/p120 mobility,"p100/p120 [3]; 0.5 mM DiC8, 10 minutes",induces a p100/p120 mobility shift
CCCOc1ccc2c(c1)c1c3c(c4c5ccccc5n5c4c1n2[C@H]1C[C@](O)(C(=O)OC)[C@]5(C)O1)CNC3=O [KT 5926],effect on p100/p120 mobility,p100/p120 [3]; 1 μM KT 5926,also induced a p100/p120 band shift
Cn1cc(C2=C(c3c4n(c5ccccc35)CCC(CN)C4)C(=O)NC2=O)c2ccccc21 (stereo not shown) [Ro 31-8425],block of PDB-induced p100/p120 band shift,p100/p120 [1],completely abolished
CN(C)CCCn1cc(C2=C(c3c[nH]c4ccccc34)C(=O)NC2=O)c2ccccc21 [bisindolylmaleimide I],block of phorbol dibutyrate effect on p100/p120 mobility,"p100/p120 [2]; bisindolylmaleimide 2 μM preincubation 15 minutes, then PDB 200 nM 5 minutes",blocked
same,block of histamine effect on p100/p120 mobility,"p100/p120 [2]; bisindolylmaleimide 2 μM preincubation 15 minutes, then histamine 10 μM 5 minutes",not so strongly affected
same,reversal of PDB-induced p100/p120 band shift,p100/p120 [1],can be reversed
same,block of PDB-induced p100/p120 band shift,p100/p120 [1],completely abolished
same,block of LPA-induced increase in tight junction permeability,[4],did not block
same,transcellular electrical resistance after sorbitol following bisindolylmaleimide pre-incubation,"[5]; 2.5 μM bisindolylmaleimide pre-incubation, then 0.3M sorbitol 10 minutes, from 643 before treatment",93 Ωcm^2
same,prevention of sorbitol-induced increase in p100/p120 mobility,"p100/p120 [6]; 2.5 μM bisindolylmaleimide 5 minutes pretreatment, then 0.3M sorbitol",not prevented
same,block of LPA-induced p100/p120 mobility increase,"p100/p120 [6]; bisindolylmaleimide 2.5 μM preincubation 10 minutes, then LPA 10 μM 70 minutes",not blocked
CN1C(=O)C(c2c[nH]c3ccccc23)=C(c2c[nH]c3ccccc23)C1=O [bisindolylmaleimide V],reversal of PDB-induced p100/p120 band shift,p100/p120 [1],did not reverse
same,block of PDB-induced p100/p120 band shift,p100/p120 [1],unable to block
COC[C@@H]([C@H](O)[C@H](O)C(=O)NCC[C@H](C)c1nc(/C=C/C[C@@H]2O[C@]3(C[C@@H](O)[C@@H]2C)O[C@H]([C@H](C[C@H](O)[C@H](C)[C@H](O)[C@H](C)/C=C(C)/C(C)=C/C=C/C(C)=C\C#N)OC)[C@H](OP(=O)(O)O)C3(C)C)co1)N(C)C [calyculin A],effect on p100/p120 mobility,"p100/p120 [3]; 100 nM calyculin A, 60 minutes",upward band shift
CN/C(=N/CCSCc1nc[nH]c1C)NC#N [cimetidine],"mobility of p100 and p120, blocker alone",p100/p120 [7],no effect
NCCc1c[nH]cn1 [histamine],mobility of p120 and p100,"p100/p120 [2]; 5 minutes, histamine 10 μM, PDB 200 nM",increased mobility
same,mobility of p100 and p120,p100/p120 [2]; [9],increase in the mobility
same,mobility of p100 and p120,"p100/p120 [2]; histamine 10 μM, 10 minutes",induced an increased mobility
same,"mobility of p100 and p120, time course","p100/p120 [2]; histamine, times indicated (FIG. 11)",rapid increase in the mobility
OC[C@@H](O)[C@@H](O)[C@H](O)[C@H](O)CO [mannitol],transcellular electrical resistance,"[5]; 0.2-0.4 M mannitol, up to 6 hours",causes a drop
same,reversibility of drop in transcellular electrical resistance,"[5]; 0.4M or 0.8M mannitol 2 minutes, then control medium 18 minutes",fully reversible
same,time at which drop in transcellular electrical resistance is clearly seen,"[5]; 0.8M mannitol, recorded over 2 minutes",≤ 20 s
C=C1[C@@H](O)[C@@H]2O[C@]3(CC[C@H](/C=C/[C@@H](C)[C@@H]4CC(C)=C[C@@]5(O[C@H](C[C@@](C)(O)C(=O)O)CC[C@H]5O)O4)O3)CC[C@H]2O[C@@H]1[C@@H](O)C[C@H](C)[C@H]1O[C@@]2(CCCCO2)CC[C@H]1C [okadaic acid],effect on p100/p120 mobility,"p100/p120 [3]; 1 μM okadaic acid, 60 minutes",upward band shift
COc1ccc(CN(CCN(C)C)c2ccccn2)cc1 [pyrilamine],"mobility of p100 and p120, blocker alone",p100/p120 [7],no effect
same,block of histamine effect on p100/p120 mobility,"p100/p120 [7]; 10 μM preincubation 10 minutes, then histamine 10 μM 10 minutes",blocked the histamine effect
OC[C@@H](O)[C@@H](O)[C@H](O)[C@@H](O)CO [sorbitol],transcellular electrical resistance after treatment,"[5]; 0.3M sorbitol, 10 minutes, from 677 before treatment",73 Ωcm^2
CN[C@@H]1C[C@H]2O[C@@](C)([C@@H]1OC)n1c3ccccc3c3c4c(c5c6ccccc6n2c5c31)C(=O)NC4 [staurosporine],effect on p100/p120 mobility,"p100/p120 [3]; 100 nM staurosporine, 60 minutes",induced a p100/p120 band shift
lysophosphatidic acid [LPA],tight junction permeability,[8],increases tight junction permeability
same,mobility of p100 and p120,p100/p120 [2]; [9],increase in the mobility
same,mobility of p120 and p100,"p100/p120 [6]; pig brain endothelial cells, 30 minutes",increased mobility
same,mobility of p120 and p100,"p100/p120 [6]; pig brain endothelial cells, 70 minutes",increased mobility
same,onset of LPA effect on p100/p120,"p100/p120 [6]; pig brain endothelial cells, further experiments",within a few minutes
